Structures can show the parent of a compound that is named as a salt. Where two headings read alike, the source gives them in different places.
Experiments:
[1] = target: T1, human PPARalpha (Homo sapiens, UniProt Q07869); experiment: Cellular PPARalpha assay (luciferase reporter, stably transfected HEK cell line); assay type: cell-based; conditions: GR-GAL4-humanPPARalpha-LBD
T1 construct: amino acids S167-Y468; expressed in transfected cells; host or cells: HEK (human embryo kidney) cells, stably transfected; plasmid pcDNA3
T1 sequence (Q07869 167-468): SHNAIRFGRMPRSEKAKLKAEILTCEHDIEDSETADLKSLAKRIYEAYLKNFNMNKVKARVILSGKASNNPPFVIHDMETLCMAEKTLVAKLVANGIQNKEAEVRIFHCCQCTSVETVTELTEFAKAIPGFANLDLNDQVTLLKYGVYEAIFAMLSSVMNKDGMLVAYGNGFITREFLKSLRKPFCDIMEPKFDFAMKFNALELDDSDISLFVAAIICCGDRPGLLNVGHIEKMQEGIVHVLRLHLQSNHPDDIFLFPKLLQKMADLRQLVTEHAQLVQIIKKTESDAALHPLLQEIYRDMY
Protocol: Determination of EC50 Values of PPAR Agonists in the Cellular PPARalpha Assay
(§1) The potency of substances which bind to human PPARalpha and activate it in an agonistic manner is analyzed using a stably transfected HEK cell line (HEK=human embryo kidney) which is referred to here as PPARalpha reporter cell line. It contains two genetic elements, a luciferase reporter element (pdeltaM-GAL4-Luc-Zeo) and a PPARalpha fusion protein (GR-GAL4-humanPPARalpha-LBD) which mediates expression of the luciferase reporter element depending on a PPARalpha ligand. The stably and constitutively expressed fusion protein GR-GAL4-humanPPARalpha-LBD binds in the cell nucleus of the PPARalpha reporter cell line via the GAL4 protein portion to the GAL4 DNA binding motifs 5′-upstream of the luciferase reporter element which is stably integrated in the genome of the cell line. There is only weak expression of the luciferase reporter gene in the absence of a PPARalpha ligand if fatty acid-depleted fetal calf serum (cs-FCS) is used in the assay. PPARalpha ligands bind and activate the PPARalpha fusion protein and thereby stimulate the expression of the luciferase reporter gene. The luciferase which is formed can be detected by means of chemiluminescence via an appropriate substrate.
The PPARalpha reporter cell line was prepared in two stages. Firstly, the luciferase reporter element was constructed and stably transfected into HEK cells. For this purpose, five binding sites of the yeast transcription factor GAL4 (Accession # AF264724) were cloned in 5′-upstream of a 68 bp-long minimal MMTV promoter (Accession # V01175). The minimal MMTV promoter section contains a […] and a TATA element in order to enable efficient transcription by RNA polymerase II. The cloning and sequencing of the GAL4-MMTV construct took place in analogy to the description of Sambrook J. et. al. (Molecular cloning, Cold Spring Harbor Laboratory Press, 1989). Then the complete Photinus pyralis gene (Accession # M15077) was cloned in 3′-downstream of the GAL4-MMTV element. After sequencing, the luciferase reporter element consisting of five GAL4 binding sites, MMTV promoter and luciferase gene was recloned into a plasmid which confers zeocin resistance in order to obtain the plasmid pdeltaM-GAL4-Luc-Zeo. This vector was transfected into HEK cells in accordance with the statements in Ausubel, F. M. et al. (Current protocols in molecular biology, Vol. 1-3, John Wiley & Sons, Inc., 1995).
In a second step, the PPARalpha fusion protein (GR-GAL4-humanPPARalpha-LBD was introduced into the stable cell clone described. For this purpose, initially the cDNA coding for the N-terminal 76 amino acids of the glucocorticoid receptor (Accession # P04150) was linked to the cDNA section coding for amino acids 1-147 of the yeast transcription factor GAL4 (Accession # P04386). The cDNA of the ligand-binding domain of the human PPARalpha receptor (amino acids S167-Y468; Accession # S74349) was cloned in at the 3′-end of this GR-GAL4 construct. The fusion construct prepared in this way (GR-GAL4-humanPPARalpha-LBD) was recloned into the plasmid pcDNA3 (Invitrogen) in order to enable constitutive expression therein by the cytomegalovirus promoter. This plasmid was linearized with a restriction endonuclease and stably transfected into the previously described cell clone containing the luciferase reporter element. The finished PPARalpha reporter cell line which contains a luciferase reporter element and constitutively expresses the PPARalpha fusion protein (GR-GAL4-human PPARalpha-LBD) was isolated by selection with zeocin (0.5 mg/ml) and G418 (0.5 mg/ml).
The activity of PPARalpha agonists is determined in a 3-day assay which is described below: […]

[2] = target: T2, human PPARdelta (Homo sapiens, UniProt Q03181); experiment: Cellular PPARdelta assay (luciferase reporter, stably transfected HEK cell line); assay type: cell-based; conditions: GR-GAL4-humanPPARdelta-LBD
T2 construct: amino acids S139-Y441; expressed in transfected cells; host or cells: HEK (human embryo kidney) cells, stably transfected; plasmid pcDNA3
T2 sequence (Q03181 139-441): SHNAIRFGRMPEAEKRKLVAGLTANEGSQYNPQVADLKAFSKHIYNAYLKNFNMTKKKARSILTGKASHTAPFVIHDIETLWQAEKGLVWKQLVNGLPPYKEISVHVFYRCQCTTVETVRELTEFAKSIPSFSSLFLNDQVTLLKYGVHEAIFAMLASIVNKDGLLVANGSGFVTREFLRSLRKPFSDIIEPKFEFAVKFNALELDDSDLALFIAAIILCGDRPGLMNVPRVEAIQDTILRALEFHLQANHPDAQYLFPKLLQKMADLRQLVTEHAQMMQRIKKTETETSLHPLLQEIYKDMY
Protocol: Determination of EC50 Values of PPAR Agonists in the Cellular PPARdelta Assay
as §1, with “PPARdelta” for “PPARalpha”, “In analogy to the assay described for PPARalpha, the PPARdelta reporter cell line also” for “It”, “(GR-GAL4-humanPPARdelta-LBD)” for “(GR-GAL4-humanPPARalpha-LBD)”, “GR-GAL4-humanPPARdelta-LBD” for “GR-GAL4-humanPPARalpha-LBD”, “little” for “weak”, “stimulate” for “stimulate the”
The production of the stable PPARdelta reporter cell line is based on a stable HEK-cell clone which was stably transfected with a luciferase reporter element. This step was already described above in the section “construction of the PPARalpha reporter cell line”. In a second step, the PPARdelta fusion protein (GR-GAL4-humanPPARdelta-LBD was stably introduced into this cell clone. For this purpose, the cDNA coding for the N-terminal 76 amino acids of the glucocorticoid receptor (Accession # P04150) was linked to the cDNA section coding for amino acids 1-147 of the yeast transcription factor GAL4 (Accession # P04386). The cDNA of the ligand-binding domain of the human PPARdelta receptor (amino acids S139-Y441; Accession # L07592) was cloned in at the 3′-end of this GR-GAL4 construct. The fusion construct prepared in this way (GR-GAL4-humanPPARdelta-LBD) was recloned into the plasmid pcDNA3 (Invitrogen) in order to enable constitutive expression by the cytomegalovirus promoter. This plasmid was linearized with a restriction endonuclease and stably transfected into the previously described cell clone containing the luciferase reporter element. The resulting PPARdelta reporter cell line which contains a luciferase reporter element and constitutively expresses the PPARdelta fusion protein (GR-GAL4-human PPARdelta-LBD) was isolated by selection with zeocin (0.5 mg/ml) and G418 (0.5 mg/ml).
The activity of PPARdelta agonists is determined in a 3-day assay in exact analogy to the procedure already described for the PPARalpha reporter cell line except that the PPARdelta reporter cell line and a specific PPARdelta agonist was used as a standard to control test efficacy.

[3] = diabetic animal model; cited from earlier work
[4] = obese, insulin resistant rhesus monkeys; cited from earlier work
[5] = rhesus monkeys; cited from earlier work
[6] = two weeks clinical trials in healthy volunteers; cited from earlier work
[7] = cynomoigus monkeys; cited from earlier work

Row | EC50 [1] [nM] | EC50 [2] [nM] | SMILES | also measured
1 | 60 | 20 | Cc1cc(CCN(CC2CCOCC2)c2nc3ccc(C(F)(F)F)cc3s2)ccc1-c1noc(=O)[nH]1 [Example 9, 3-(2-Methyl-4-{2-[(tetrahydro-pyran-4-ylmethyl)-(6-trifluoromethyl-benzothiazol-2-yl)-amino]-ethyl}-phenyl)-4H-[1,2,4]oxadiazol-5-one] | 
2 | 70 | 4 | COCCCN(CCc1ccc(-c2noc(=O)[nH]2)c(C)c1)c1nc2ccc(C(F)(F)F)cc2s1 [Example 14, 3-(4-{2-[(3-Methoxy-propyl)-(6-trifluoromethyl-benzothiazol-2-yl)-amino]-ethyl}-2-methyl-phenyl)-4H-[1,2,4]oxadiazol-5-one] | 
3 | 820 | 650 | COCCN(CCc1ccc(-c2noc(=O)[nH]2)cc1)c1nc(-c2ccc(Cl)cc2)cs1 [Example 23, 3-(4-{2-[[4-(4-Chloro-phenyl)-thiazol-2-yl]-(2-methoxy-ethyl)-amino]-ethyl}-phenyl)-4H-[1,2,4]oxadiazol-5-one] | 
4 | 1350 | 270 | CCCCN(Cc1ccc(-c2noc(=O)[nH]2)c(F)c1)c1nc2ccc(C(F)(F)F)cc2s1 [Example 24, 3-(4-{[Butyl-(6-trifluoromethyl-benzothiazol-2-yl)-amino]-methyl}-2-fluoro-phenyl)-4H-[1,2,4]oxadiazol-5-one] | 
5 | 1020 | 60 | COCCN(Cc1ccc(-c2noc(=O)[nH]2)c(F)c1)c1nc2ccc(C(F)(F)F)cc2s1 [Example 28, 3-(2-Fluoro-4-{[(2-methoxy-ethyl)-(6-trifluoromethyl-benzothiazol-2-yl)-amino]-methyl}-phenyl)-4H-[1,2,4]oxadiazol-5-one] | 
6 | 1100 | 1800 | CN(C)CCN(Cc1ccc(-c2noc(=O)[nH]2)c(C(F)(F)F)c1)c1nc2ccc(C(F)(F)F)cc2s1 [Example 33, 3-(4-{[(2-Dimethylamino-ethyl)-(6-trifluoromethyl-benzothiazol-2-yl)-amino]-methyl}-2-trifluoromethyl-phenyl)-4H-[1,2,4]oxadiazol-5-one trifluoroacetate] | 
7 | 360 | 200 | COCCCN(Cc1ccc(-c2noc(=O)[nH]2)c(F)c1)c1nc(-c2ccc(Cl)cc2)cs1 [Example 39, 3-(4-{[[4-(4-Chloro-phenyl)-thiazol-2-yl]-(3-methoxy-propyl)-amino]-methyl}-2-fluoro-phenyl) -4H-[1,2,4]oxadiazol-5-one] | 
8 |  |  | CCCc1c(OCCCOc2ccc(OCC(=O)O)cc2)ccc(C(C)=O)c1O [Example L-165041] | plasma cholesterol [3]: raises
9 |  |  | Cc1cc(SCc2sc(-c3ccc(C(F)(F)F)cc3)nc2C)ccc1OCC(=O)O [GW501516] | HDL-cholesterol [4]: raises; insulin levels [4]: decreases; plasma LDL-cholesterol [4]: decreases; plasma triglycerides [4]: decreases
10 |  |  | CCCc1c(OCCCSc2nnc(SCC(=O)O)s2)ccc(C(C)=O)c1O [YM-16638] | plasma lipids [5]: significantly lowers; plasma lipids [6]: acts in a similar manner; plasma lipids [7]: significantly lowers
